In PubChem BioAssay (NCI):
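Grown in 96-well plates, cells were treated for 48 hours with each compound at five concentrations. Insufficient inhibition: endpoint recorded as highest concentration tested. GI50 is the concentration that inhibits growth by half. TGI denotes the concentration required for complete inhibition of growth.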

Columns and labels:
Test in all cases: growth of human tumour cells (NCI), 48 h
786-0 renal = test system: 786-0 renal
A498 renal = test system: A498 renal
ACHN renal = test system: ACHN renal
BT-549 breast = test system: BT-549 breast
CAKI-1 renal = test system: CAKI-1 renal
COLO 205 colon = test system: COLO 205 colon
DU-145 prostate = test system: DU-145 prostate
EKVX NSCLC = test system: EKVX NSCLC
HCC-2998 colon = test system: HCC-2998 colon
HCT-116 colon = test system: HCT-116 colon
HCT-15 colon = test system: HCT-15 colon
HL-60(TB) leukemia = test system: HL-60(TB) leukemia
HOP-62 NSCLC = test system: HOP-62 NSCLC
HOP-92 NSCLC = test system: HOP-92 NSCLC
HS 578T breast = test system: HS 578T breast
HT29 colon = test system: HT29 colon
IGROV1 ovarian = test system: IGROV1 ovarian
K-562 leukemia = test system: K-562 leukemia
KM12 colon = test system: KM12 colon
LOX IMVI melanoma = test system: LOX IMVI melanoma
M14 melanoma = test system: M14 melanoma
MALME-3M melanoma = test system: MALME-3M melanoma
MCF7 breast = test system: MCF7 breast
MDA-MB-231 breast = test system: MDA-MB-231 breast
MDA-MB-435 = test system: MDA-MB-435
MOLT-4 leukemia = test system: MOLT-4 leukemia
NCI-H226 lung = test system: NCI-H226 lung
NCI-H23 lung = test system: NCI-H23 lung
NCI-H460 lung = test system: NCI-H460 lung
NCI-H522 lung = test system: NCI-H522 lung
NCI/ADR-RES ovarian = test system: NCI/ADR-RES ovarian
OVCAR-3 ovarian = test system: OVCAR-3 ovarian
OVCAR-4 ovarian = test system: OVCAR-4 ovarian
OVCAR-5 ovarian = test system: OVCAR-5 ovarian
OVCAR-8 ovarian = test system: OVCAR-8 ovarian
PC-3 prostate = test system: PC-3 prostate
RPMI-8226 leukemia = test system: RPMI-8226 leukemia
RXF 393 renal = test system: RXF 393 renal
SF-268 CNS = test system: SF-268 CNS
SF-295 CNS = test system: SF-295 CNS
SF-539 CNS = test system: SF-539 CNS
SK-MEL-2 melanoma = test system: SK-MEL-2 melanoma
SK-MEL-28 melanoma = test system: SK-MEL-28 melanoma
SK-MEL-5 melanoma = test system: SK-MEL-5 melanoma
SK-OV-3 ovarian = test system: SK-OV-3 ovarian
SN12C renal = test system: SN12C renal
SNB-19 CNS = test system: SNB-19 CNS
SNB-75 CNS = test system: SNB-75 CNS
SW-620 colon = test system: SW-620 colon
T-47D breast = test system: T-47D breast
TK-10 renal = test system: TK-10 renal
U251 CNS = test system: U251 CNS
UACC-257 melanoma = test system: UACC-257 melanoma
UACC-62 melanoma = test system: UACC-62 melanoma
UO-31 renal = test system: UO-31 renal
CCRF-CEM leukemia = test system: CCRF-CEM leukemia
SR leukemia = test system: SR leukemia

COc1cc2c3c(n(CCCN)c(=O)c2cc1OC)-c1ccccc1C3=O
GI50 (786-0 renal): 396 nM
TGI (786-0 renal): 2020 nM
GI50 (A498 renal): 1900 nM
TGI (A498 renal): 9510 nM
GI50 (ACHN renal): 1140 nM
TGI (ACHN renal): 8100 nM
GI50 (BT-549 breast): 4850 nM
TGI (BT-549 breast): 13900 nM
GI50 (CAKI-1 renal): 282 nM
TGI (CAKI-1 renal): 2940 nM
GI50 (COLO 205 colon): 472 nM
TGI (COLO 205 colon): 5720 nM
GI50 (DU-145 prostate): 1830 nM
TGI (DU-145 prostate): 4810 nM
GI50 (EKVX NSCLC): 3850 nM
TGI (EKVX NSCLC): 10300 nM
GI50 (HCC-2998 colon): 531 nM
TGI (HCC-2998 colon): 2110 nM
GI50 (HCT-116 colon): 10.1 nM
TGI (HCT-116 colon): 172 nM
GI50 (HCT-15 colon): 1000 nM
GI50 (HL-60(TB) leukemia): 5090 nM
TGI (HL-60(TB) leukemia): > 100000 nM
GI50 (HOP-62 NSCLC): 351 nM
TGI (HOP-62 NSCLC): 2960 nM
GI50 (HOP-92 NSCLC): 15200 nM
TGI (HOP-92 NSCLC): 36700 nM
GI50 (HS 578T breast): 11100 nM
TGI (HS 578T breast): 46900 nM
GI50 (HT29 colon): 164 nM
GI50 (IGROV1 ovarian): 1450 nM
TGI (IGROV1 ovarian): > 100000 nM
GI50 (K-562 leukemia): 911 nM
GI50 (KM12 colon): 517 nM
TGI (KM12 colon): 2500 nM
GI50 (LOX IMVI melanoma): 125 nM
TGI (LOX IMVI melanoma): 1020 nM
GI50 (M14 melanoma): 199 nM
TGI (M14 melanoma): 2280 nM
GI50 (MALME-3M melanoma): 91.8 nM
TGI (MALME-3M melanoma): 17500 nM
GI50 (MCF7 breast): 316 nM
TGI (MCF7 breast): 2110 nM
GI50 (MDA-MB-231 breast): 1230 nM
TGI (MDA-MB-231 breast): 3020 nM
GI50 (MDA-MB-435): 755 nM
TGI (MDA-MB-435): 18900 nM
TGI (MOLT-4 leukemia): 7120 nM
GI50 (NCI-H226 lung): 4310 nM
TGI (NCI-H226 lung): 16100 nM
GI50 (NCI-H23 lung): 1250 nM
TGI (NCI-H23 lung): 6030 nM
GI50 (NCI-H460 lung): 176 nM
GI50 (NCI-H522 lung): 339 nM
TGI (NCI-H522 lung): 22700 nM
GI50 (NCI/ADR-RES ovarian): 2280 nM
TGI (NCI/ADR-RES ovarian): 9750 nM
GI50 (OVCAR-3 ovarian): 260 nM
TGI (OVCAR-3 ovarian): 4200 nM
GI50 (OVCAR-4 ovarian): 2290 nM
TGI (OVCAR-4 ovarian): 12700 nM
GI50 (OVCAR-5 ovarian): 14300 nM
TGI (OVCAR-5 ovarian): 29200 nM
GI50 (OVCAR-8 ovarian): 455 nM
TGI (OVCAR-8 ovarian): 6650 nM
GI50 (PC-3 prostate): 723 nM
TGI (PC-3 prostate): 2690 nM
GI50 (RPMI-8226 leukemia): 77.2 nM
GI50 (RXF 393 renal): 1040 nM
TGI (RXF 393 renal): 2560 nM
GI50 (SF-268 CNS): 1710 nM
TGI (SF-268 CNS): > 21600 nM
GI50 (SF-295 CNS): 70.9 nM
TGI (SF-295 CNS): 5240 nM
GI50 (SF-539 CNS): 1250 nM
TGI (SF-539 CNS): 5230 nM
GI50 (SK-MEL-2 melanoma): 14300 nM
TGI (SK-MEL-2 melanoma): 35500 nM
GI50 (SK-MEL-28 melanoma): 9990 nM
TGI (SK-MEL-28 melanoma): > 46800 nM
GI50 (SK-MEL-5 melanoma): 2020 nM
TGI (SK-MEL-5 melanoma): 19800 nM
GI50 (SK-OV-3 ovarian): 5620 nM
TGI (SK-OV-3 ovarian): 23000 nM
GI50 (SN12C renal): 934 nM
TGI (SN12C renal): 5080 nM
GI50 (SNB-19 CNS): 2950 nM
TGI (SNB-19 CNS): > 42000 nM
GI50 (SNB-75 CNS): 4600 nM
TGI (SNB-75 CNS): 11600 nM
GI50 (SW-620 colon): 1890 nM
TGI (SW-620 colon): > 100000 nM
GI50 (T-47D breast): 7180 nM
TGI (T-47D breast): 39000 nM
GI50 (TK-10 renal): 2140 nM
TGI (TK-10 renal): 6310 nM
GI50 (U251 CNS): 557 nM
TGI (U251 CNS): 3430 nM
GI50 (UACC-257 melanoma): 6300 nM
TGI (UACC-257 melanoma): 27800 nM
GI50 (UACC-62 melanoma): 1730 nM
TGI (UACC-62 melanoma): 16000 nM
GI50 (UO-31 renal): 1800 nM
TGI (UO-31 renal): 13100 nM

CN=C(N)N/N=C(\C)c1ccc2c(c1)Cc1cc(/C(C)=N/NC(N)=NC)ccc1-2
GI50 (786-0 renal): 752 nM
TGI (786-0 renal): > 100000 nM
GI50 (BT-549 breast): 1960 nM
TGI (BT-549 breast): 5620 nM
GI50 (CAKI-1 renal): 2070 nM
TGI (CAKI-1 renal): 5370 nM
GI50 (CCRF-CEM leukemia): 444 nM
TGI (CCRF-CEM leukemia): > 100000 nM
GI50 (HCT-116 colon): 2360 nM
TGI (HCT-116 colon): > 100000 nM
GI50 (HCT-15 colon): 2040 nM
TGI (HCT-15 colon): > 100000 nM
GI50 (HOP-62 NSCLC): 668 nM
TGI (HOP-62 NSCLC): > 100000 nM
GI50 (HOP-92 NSCLC): 1330 nM
TGI (HOP-92 NSCLC): 6150 nM
GI50 (HS 578T breast): 725 nM
TGI (HS 578T breast): 3760 nM
GI50 (HT29 colon): 2130 nM
TGI (HT29 colon): > 20800 nM
GI50 (MOLT-4 leukemia): 422 nM
TGI (MOLT-4 leukemia): > 100000 nM
GI50 (NCI/ADR-RES ovarian): 10900 nM
TGI (NCI/ADR-RES ovarian): > 100000 nM
GI50 (PC-3 prostate): 2130 nM
TGI (PC-3 prostate): 5800 nM
GI50 (SN12C renal): 254 nM
TGI (SN12C renal): 781 nM
GI50 (SR leukemia): 1810 nM
TGI (SR leukemia): > 100000 nM
GI50 (SW-620 colon): 2360 nM
TGI (SW-620 colon): 6190 nM
GI50 (T-47D breast): 2020 nM
TGI (T-47D breast): 5470 nM
GI50 (TK-10 renal): 2320 nM
TGI (TK-10 renal): 7090 nM
GI50 (UACC-257 melanoma): 3230 nM
TGI (UACC-257 melanoma): > 100000 nM
GI50 (UACC-62 melanoma): 2480 nM
TGI (UACC-62 melanoma): > 100000 nM
